The values below come from US20030166007A1, “Chemical proteomics” (MDS Proteomics Inc., priority 2002, published 2003).

Experiment [1] concerns the target T1, Propionyl CoA carboxylase (Homo sapiens, UniProt P05165+P05166).
T1 construct: endogenous in cells; host or cells: HEK 293
T1 sequence (P05165 53-728): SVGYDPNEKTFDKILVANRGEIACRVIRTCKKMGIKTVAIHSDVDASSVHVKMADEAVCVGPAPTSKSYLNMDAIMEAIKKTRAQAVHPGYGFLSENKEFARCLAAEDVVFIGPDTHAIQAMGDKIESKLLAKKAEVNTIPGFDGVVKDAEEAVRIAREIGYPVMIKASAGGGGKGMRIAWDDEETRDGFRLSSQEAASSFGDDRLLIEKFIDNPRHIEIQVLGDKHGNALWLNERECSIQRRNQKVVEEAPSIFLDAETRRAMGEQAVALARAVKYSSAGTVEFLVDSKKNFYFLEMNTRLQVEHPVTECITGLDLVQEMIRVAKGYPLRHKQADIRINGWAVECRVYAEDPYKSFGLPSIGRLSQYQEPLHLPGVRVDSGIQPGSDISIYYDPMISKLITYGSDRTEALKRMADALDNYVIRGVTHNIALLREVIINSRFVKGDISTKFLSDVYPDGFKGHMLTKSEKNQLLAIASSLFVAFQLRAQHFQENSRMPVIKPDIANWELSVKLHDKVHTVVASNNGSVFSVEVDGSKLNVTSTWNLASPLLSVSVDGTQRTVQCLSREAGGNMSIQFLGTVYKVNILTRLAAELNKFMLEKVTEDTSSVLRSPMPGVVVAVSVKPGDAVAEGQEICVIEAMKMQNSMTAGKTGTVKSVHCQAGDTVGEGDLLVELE
T1 sequence (P05166 29-539): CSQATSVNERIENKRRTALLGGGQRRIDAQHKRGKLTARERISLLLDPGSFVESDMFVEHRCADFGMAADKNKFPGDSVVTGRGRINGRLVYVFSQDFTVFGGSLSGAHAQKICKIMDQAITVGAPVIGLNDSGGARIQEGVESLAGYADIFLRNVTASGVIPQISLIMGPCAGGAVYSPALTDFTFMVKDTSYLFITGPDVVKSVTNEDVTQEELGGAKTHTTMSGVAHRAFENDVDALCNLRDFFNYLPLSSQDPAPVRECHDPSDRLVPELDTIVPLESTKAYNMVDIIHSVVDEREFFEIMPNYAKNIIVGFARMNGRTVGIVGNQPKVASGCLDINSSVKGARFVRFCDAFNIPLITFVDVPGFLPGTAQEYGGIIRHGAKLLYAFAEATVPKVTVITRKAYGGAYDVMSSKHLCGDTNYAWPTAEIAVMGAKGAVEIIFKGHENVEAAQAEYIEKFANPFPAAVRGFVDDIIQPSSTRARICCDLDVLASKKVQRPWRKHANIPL
The experiment can be described thus: MTX-agarose affinity chromatography of cell lysate, MS identification. Conditions: HEK 293 lysate. In kind it is binding.
Description: (§1) After incubation for 30 minutes at 4° C. with shaking, the lysates were clarified by centrifugation (27,000×g). In some experiments, cells were lysed using 20 strokes of a Dounce® homogenizer in the absence of detergents. […] While optimizing the protocol, however, several experimental variations were tested on cell lysates including concentration by ammonium sulfate precipitation, or removal of nucleic acid with Streptomycin sulfate. In such cases, the protein sample was desalted using a PD 10 protein-desalting column (Pharmacia), which had been pre-equilibrated in the same buffer (10 mM potassium phosphate pH 7.5)
(§2) Affinity Chromatography: The desalted lysate was loaded onto a column of pre-equilibrated MTX-agarose (Sigma, 50 μL bed volume) or sepharose 4B agarose as a negative control. The lysates were allowed to slowly flow through the matrix under gravity flow. […] Retentates from the microcons were then loaded onto SDS-PAGE 4%-15% gradient mini gels (Bio-Rad). […]
(§3) The peptides were then separated by reverse phase chromatography on C18 resin and directly injected into a mass spectrometer using an automated sample-loading device from 96 well plates. […] The spectra generated were analyzed on a custom-built multi-node server platform (RADARS, ProteoMetrics), which uses two database searching programs, Sonar (ProteoMetrics) and Mascot (Matrix Sciences). […]

The target in a further experiment is T2, Deoxyguanosine kinase (Homo sapiens, UniProt Q16854).
T2 construct: endogenous in cells; host or cells: HEK 293
T2 sequence (Q16854 40-277): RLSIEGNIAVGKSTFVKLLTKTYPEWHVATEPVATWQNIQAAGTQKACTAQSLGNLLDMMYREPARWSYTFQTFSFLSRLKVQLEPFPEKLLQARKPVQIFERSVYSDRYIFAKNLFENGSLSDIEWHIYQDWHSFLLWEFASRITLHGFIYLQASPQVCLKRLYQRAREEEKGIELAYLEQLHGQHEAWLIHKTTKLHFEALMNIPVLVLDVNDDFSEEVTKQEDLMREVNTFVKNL
Described as above. In kind it is binding. Conditions: HEK 293 lysate.

For the next experiment, the target named is T3, SAICAR synthetase (Homo sapiens, UniProt P22234).
T3 construct: endogenous in cells; host or cells: HEK 293
T3 sequence (P22234 1-425): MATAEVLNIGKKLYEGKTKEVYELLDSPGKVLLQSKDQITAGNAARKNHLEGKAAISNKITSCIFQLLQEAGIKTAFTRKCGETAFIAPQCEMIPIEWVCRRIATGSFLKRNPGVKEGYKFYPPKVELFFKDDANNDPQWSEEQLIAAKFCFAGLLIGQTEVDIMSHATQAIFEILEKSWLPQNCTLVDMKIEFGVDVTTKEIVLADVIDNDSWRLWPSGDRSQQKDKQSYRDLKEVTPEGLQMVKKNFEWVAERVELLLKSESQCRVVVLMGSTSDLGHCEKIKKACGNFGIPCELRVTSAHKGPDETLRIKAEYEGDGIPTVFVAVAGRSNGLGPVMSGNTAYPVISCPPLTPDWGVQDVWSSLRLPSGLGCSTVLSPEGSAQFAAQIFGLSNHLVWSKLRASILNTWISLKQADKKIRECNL
The description is as above. The format is binding. Conditions: HEK 293 lysate; bifunctional enzyme with AIR carboxylase.

For experiment [2], the target named is T4, muscle glycogen phosphorylase b (Homo sapiens, UniProt P11217).
T4 sequence (P11217 1-842): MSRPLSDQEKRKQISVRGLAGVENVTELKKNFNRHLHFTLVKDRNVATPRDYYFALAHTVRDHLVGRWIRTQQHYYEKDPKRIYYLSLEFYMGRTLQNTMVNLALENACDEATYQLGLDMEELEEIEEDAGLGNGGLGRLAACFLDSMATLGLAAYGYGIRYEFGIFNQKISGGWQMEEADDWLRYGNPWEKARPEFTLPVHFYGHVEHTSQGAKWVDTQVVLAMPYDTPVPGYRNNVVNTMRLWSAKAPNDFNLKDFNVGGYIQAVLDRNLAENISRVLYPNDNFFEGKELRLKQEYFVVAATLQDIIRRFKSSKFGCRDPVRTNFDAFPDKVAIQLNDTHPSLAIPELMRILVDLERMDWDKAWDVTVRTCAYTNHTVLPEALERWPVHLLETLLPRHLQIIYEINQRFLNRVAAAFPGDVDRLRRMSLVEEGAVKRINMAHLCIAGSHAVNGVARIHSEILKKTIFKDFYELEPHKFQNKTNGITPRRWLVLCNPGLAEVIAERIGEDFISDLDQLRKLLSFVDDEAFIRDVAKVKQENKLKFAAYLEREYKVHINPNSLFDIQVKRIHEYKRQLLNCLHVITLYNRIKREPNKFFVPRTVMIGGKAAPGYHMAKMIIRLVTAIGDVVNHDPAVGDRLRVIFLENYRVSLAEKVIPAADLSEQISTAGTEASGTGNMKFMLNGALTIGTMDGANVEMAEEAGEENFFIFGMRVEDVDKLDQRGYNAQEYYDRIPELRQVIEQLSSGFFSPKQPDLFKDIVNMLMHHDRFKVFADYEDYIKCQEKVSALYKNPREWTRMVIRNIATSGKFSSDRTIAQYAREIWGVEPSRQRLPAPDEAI
Conditions: cited from earlier work.

In another experiment the target is T5, Deoxycytidine Kinase (Homo sapiens, UniProt P27707).
T5 construct: endogenous in cells; host or cells: HEK 293
The experiment can be described thus: MTX-agarose affinity chromatography of cell lysate, MS identification. Conditions: HEK 293 lysate. In kind it is binding.

The target of a further experiment is T6, AIR carboxylase (Homo sapiens, UniProt P22234).
T6 construct: endogenous in cells; host or cells: HEK 293
T6 sequence (P22234 1-425): T3 sequence (P22234 1-425)
The experiment is described as above. The format is binding. Conditions: HEK 293 lysate.

T5 sequence (P27707 whole entry): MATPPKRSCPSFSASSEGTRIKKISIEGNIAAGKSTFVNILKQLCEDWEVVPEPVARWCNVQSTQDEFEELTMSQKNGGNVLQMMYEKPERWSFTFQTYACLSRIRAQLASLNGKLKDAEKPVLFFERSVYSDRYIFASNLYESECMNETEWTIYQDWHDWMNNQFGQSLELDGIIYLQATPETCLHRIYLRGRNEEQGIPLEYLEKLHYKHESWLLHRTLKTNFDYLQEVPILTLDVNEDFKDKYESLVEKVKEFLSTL
Description for AIR carboxylase: as §1, §2, §3
Description for Deoxycytidine Kinase: as §1, §2, §3
Description for Deoxyguanosine kinase: as §1, §2, §3
Description for SAICAR synthetase: as §1, §2, §3

In the case of `CN(Cc1cnc2nc(N)nc(N)c2n1)c1ccc(C(=O)N[C@@H](CCC(=O)O)C(=O)O)cc1` [Methotrexate], the “Association with the Methotrexate matrix” value is listed as “pulled down consistently” in experiment [1], “a single band contained peptides from both domains” at SAICAR synthetase, “indirect interaction with Methotrexate” at Deoxycytidine Kinase and “associated indirectly with Methotrexate” at AIR carboxylase. In addition, the “Protein identified by Mass Spec.; New MTX interactor” value on Deoxyguanosine kinase was “binds to Methotrexate through a direct interaction”; at Deoxyguanosine kinase (listed as MTX), “✓”. Also, the “inhibition of muscle glycogen phosphorylase b” value in experiment [2] is “reversible inhibitors”.
